Experimental data as given in PMC4648589, “Selection of an HLA-C*03:04-Restricted HIV-1 p24 Gag Sequence Variant Is Associated with Viral Escape from KIR2DL3+ Natural Killer Cells: Data from an Observational Cohort in South Africa” (PLoS Medicine, 2015).
Several values for one entry are separate records, joined by “and”; a condition that tells them apart may be missing. Equal entries are not always repeated.

Columns and labels:
[1] = biological target: T1, KIR2DL3 (Homo sapiens, UniProt P43628); test: KIR2DL3-Fc binding to peptide-pulsed 721.221-ICP47-C*03:04 cells (flow cytometry); conditions: for KIR2DL3-Fc Binding (Mean ± SD): ratio of percent KIR2DL3-Fc binding of variant peptide to that of wild-type peptide TGag303; for KIR2DL3-Fc binding, percent of cells binding KIR2DL3-Fc: cells pulsed with 100 μM peptide for 20 h, 2.5 μg KIR2DL3-Fc, 1 h on ice, mean ± SD of six independent experiments
T1 construct: purchased R&D Systems (KIR2DL3-Fc); Immudex (HLA-C*03:04/peptide monomers)

[2] = tested on: primary KIR2DL3+ NK cells; test: Primary NK cell degranulation (CD107a) against peptide-pulsed 721.221-ICP47-C*03:04 cells, KIR2DL3+ subset; assay type: cell-based, human; conditions: for KIR2DL3+ NK Cell Activity (Mean ± SEM): ratio of percent CD107a+ KIR2DL3+ NK cells with variant peptide to that with wild-type peptide; for Relative degranulation of KIR2DL3+ NK cells (CD107a): % CD107a+ NK cells divided by % with GKL control peptide, effector:target 1:5, 6 h at 26°C, mean ± SEM, nine donors
Description: (§1) To determine activation of primary NK cells following exposure to target cells pulsed with different peptide variants, NK cell degranulation assays measuring CD107a expression were performed using freshly isolated and purified NK cells from nine healthy KIR2DL3+ individuals. Primary NK cells were isolated by incubating whole blood with RosetteSep Human NK Cell Enrichment Cocktail (Stemcell Technologies) for 20 min at room temperature, followed by Histopaque-1077 (Sigma) density gradient centrifugation. NK cells were rested overnight in RPMI medium 1640 (Sigma-Aldrich) supplemented with 10% heat-inactivated fetal calf serum (Sigma-Aldrich), 2,500 U/ml penicillin, 2,500 μg/ml streptomycin, […] L-glutamine (Cellgro), and 1.0 ng/ml IL-15 (Cellgro). Subsequently, NK cells (1 × 10^5) were co-incubated with peptide-pulsed 721.221-ICP47-C*03:04 cells (5 × 10^5) at an effector:target ratio of 1:5 in RPMI containing anti-human CD107a-PE-Cy7 (12.5 μl/ml) and monensin (1.5 μl/ml, BD GolgiStop). Cells were incubated for 6 h at 26°C in 5% CO2. Cells were stained with 7AAD, anti-CD3-PB, anti-CD16-BV785, anti-CD56-BV605, anti-CD14/19-BV510, anti-KIR2DL2/3-PE, and anti-KIR2DL3-APC, washed, fixed with 4% (w/v in PBS) paraformaldehyde (Affymetrix), and analyzed by multiparameter flow cytometry using a BD LSR II.
Flow cytometry data were analyzed using FlowJo software version 10.0.6 (Tree Star), and statistical analysis was performed using GraphPad Prism 6 (GraphPad Software). HLA stabilization values are shown as mean relative fluorescence intensity; error bars represent standard deviation (SD). Relative fluorescence intensity was calculated by dividing the geometric mean fluorescence intensity (gMFI) of HLA expression in the presence of the tested peptide by the gMFI of stained target cells without peptide added in each respective assay. Binding of KIR2DL3-Fc is represented as percent of KIR2DL3+ cells ± SD. […] A repeated-measures one-way ANOVA was subsequently performed to compare the responses between the wild-type group and the groups of the two variant peptides, for the KIR2DL3+ and KIR2DL3− NK cells, respectively. This was followed by a Tukey’s post hoc test. Each individual was sampled one time.

[3] = biological target: HLA-C*03:04 (Homo sapiens, UniProt P10321, A176E/A330V/A97T/C25G/C350S/D114A/D33Y/E197K/L119I/L127V/L171W/L218V/M285V/M309V/M331V/P208H/Q277E/Q291P/R243W/R45H/S123Y/S140Y/S297R/S48A/T118I/T187L/T329A/T363A/V319A); test: HLA-C*03:04 stabilization assay on peptide-pulsed TAP-blocked 721.221-ICP47-C*03:04 cells (W6/32 staining, flow cytometry); assay type: cell-based; conditions: for HLA-C*03:04 stabilization, mean relative fluorescence intensity / HLA-C*03:04 stabilization, mean relative fluorescence intensity, titration: mean ± SD; for HLA-C*03:04 stabilization, mean relative fluorescence intensity: n = 3; for HLA-C*03:04 stabilization, mean relative fluorescence intensity (RFI): 100 μM peptide (saturating), 20 h at 26°C, gMFI with peptide divided by gMFI without peptide, mean ± SD of five experiments; for HLA-C*03:04 stabilization, mean relative fluorescence intensity, titration: serial peptide dilutions, non-saturating levels
[4] = tested on: primary KIR2DL3− NK cells; test: Primary NK cell degranulation (CD107a) against peptide-pulsed 721.221-ICP47-C*03:04 cells, KIR2DL3− subset; assay type: cell-based, human; conditions: % CD107a+ NK cells divided by % with GKL control peptide; effector:target 1:5, 6 h at 26°C; mean ± SEM, nine donors
Description: as §1
Flow cytometry data were analyzed using FlowJo software version 10.0.6 (Tree Star), and statistical analysis was performed using GraphPad Prism 6 (GraphPad Software). HLA stabilization values are shown as mean relative fluorescence intensity; error bars represent standard deviation (SD). Relative fluorescence intensity was calculated by dividing the geometric mean fluorescence intensity (gMFI) of HLA expression in the presence of the tested peptide by the gMFI of stained target cells without peptide added in each respective assay. Binding of KIR2DL3-Fc is represented as percent of KIR2DL3+ cells ± SD. […]

[5] = biological target: biotinylated HLA-C*03:04 monomer refolded with … (human | not stated | HIV-1 clade C); test: SPR; Biacore 3000; […]) 10 μg/ml in PBS, 60 μl at 20 μl/min; HBS-EP; 25°C; […]
[6] = 0.1 μM peptide (non-saturating)

T1 sequence (P43628 with tags, fused parts or gaps limits assumed): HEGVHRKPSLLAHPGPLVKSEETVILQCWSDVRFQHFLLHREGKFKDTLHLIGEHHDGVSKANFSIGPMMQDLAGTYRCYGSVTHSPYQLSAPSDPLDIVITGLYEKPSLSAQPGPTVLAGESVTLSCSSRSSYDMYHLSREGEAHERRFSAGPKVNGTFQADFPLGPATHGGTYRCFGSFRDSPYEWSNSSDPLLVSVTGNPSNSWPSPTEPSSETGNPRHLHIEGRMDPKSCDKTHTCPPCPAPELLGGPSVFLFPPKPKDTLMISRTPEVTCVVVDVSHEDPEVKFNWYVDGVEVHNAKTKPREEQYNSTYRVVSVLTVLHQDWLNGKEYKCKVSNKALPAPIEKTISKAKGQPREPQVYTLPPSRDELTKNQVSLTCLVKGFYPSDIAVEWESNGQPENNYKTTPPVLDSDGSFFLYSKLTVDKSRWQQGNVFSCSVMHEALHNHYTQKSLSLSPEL
Chain of recombinant human KIR2DL3-IgG-Fc chimera (P43628 22-245, change not shown): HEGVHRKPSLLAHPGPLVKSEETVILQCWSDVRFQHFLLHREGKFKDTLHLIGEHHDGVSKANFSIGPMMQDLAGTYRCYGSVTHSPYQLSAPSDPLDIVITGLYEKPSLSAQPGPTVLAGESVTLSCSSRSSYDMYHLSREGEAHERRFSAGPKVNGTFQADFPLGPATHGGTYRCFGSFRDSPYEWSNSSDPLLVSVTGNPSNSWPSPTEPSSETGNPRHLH

Substance	KIR2DL3 binding (in words) ([1]; HLA-C*03:04 stabilized at similar levels, used as negative control)	KIR2DL3-Fc Binding (Mean ± SD) [1]	KIR2DL3+ NK Cell Activity (Mean ± SEM) [2]	HLA-C*03:04 stabilization, mean relative fluorescence intensity [3, 6]	HLA-C*03:04 stabilization, mean relative fluorescence intensity ([3]; 1 μM peptide (non-saturating))	HLA-C*03:04 stabilization, mean relative fluorescence intensity (RFI) [3]	HLA-C*03:04 stabilization, mean relative fluorescence intensity, titration [3]	KIR2DL3-Fc binding, percent of cells binding KIR2DL3-Fc [1]	Relative degranulation of KIR2DL3+ NK cells (CD107a) [2]	Relative degranulation of KIR2DL3− NK cells (CD107a) [4]	Kd [5]
GAVDPLLKL [GKL, reference compound]	did not allow for KIR2DL3 binding	0.06 ± 0.03	1.70 ± 0.3								
RALGPAATL				1.29 ± 0.19	2.72 ± 0.81						
RALGPGATL				2.26 ± 0.39	4.24 ± 0.46						
YVDRFFKAL [TGag303A]		0.90 ± 0.17	1.36 ± 0.33			3.17 ± 0.53	1.84 ± 0.79	15.46 ± 7.24%	0.89 ± 0.05	1.06 ± 0.04	
YVDRFFKTL [TGag303]						3.24 ± 0.64	2.60 ± 1.45	18.01 ± 10.45%	0.78 ± 0.07	1.06 ± 0.04	
YVDRFFKVL [TGag303V]		2.74 ± 0.66	0.76 ± 0.08			3.40 ± 0.74	2.17 ± 1.36	44.67 ± 14.42%	0.63 ± 0.07	1.04 ± 0.05	
recombinant human KIR2DL3-IgG-Fc chimera (from UniProt P43628) (Fc fusion)											93 nM and 77 nM
